According to PubChem BioAssay AID2060489 (Molecular Pharmacology Branch, DTP, NCI, 2025):

Test system: 922993-354-T-J3-PDC complex spheroids, viability
Assay: Anticancer human tumor 922993-354-T-J3-PDC patient-derived endometrial carcinoma cell line growth inhibition [GQUAD]
Conditions: for IC50: curve of first compound; for viability, T/C: stronger effect = lower value; active = viability on the fitted dose curve at most 10% of control; inactive = the rest
Summary of the method: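 Viability of tumor cells grown as complex spheroids with endothelial and stromal cells, exposed to drug combinations. Top concentration at or near clinical Cmax (else 10 microM), diluted in half-log increments.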

[1] = second compound 0.0316 µM, first compound 0.0316 µM
[2] = second compound 0.0316 µM, first compound 0.1 µM
[3] = second compound 0.0316 µM, first compound 0.316 µM
[4] = second compound 0.0316 µM, first compound 1 µM
[5] = second compound 0.0316 µM, first compound 3.16 µM
[6] = second compound 0.0316 µM, first compound 10 µM
[7] = second compound 0.1 µM, first compound 0.0316 µM
[8] = second compound 0.1 µM, first compound 0.1 µM
[9] = second compound 0.1 µM, first compound 0.316 µM
[10] = second compound 0.1 µM, first compound 1 µM
[11] = second compound 0.1 µM, first compound 3.16 µM
[12] = second compound 0.1 µM, first compound 10 µM
[13] = second compound 0.316 µM, first compound 0.0316 µM
[14] = second compound 0.316 µM, first compound 0.1 µM
[15] = second compound 0.316 µM, first compound 0.316 µM
[16] = second compound 0.316 µM, first compound 1 µM
[17] = second compound 0.316 µM, first compound 3.16 µM
[18] = second compound 0.316 µM, first compound 10 µM
[19] = second compound 1 µM, first compound 0.0316 µM
[20] = second compound 1 µM, first compound 0.1 µM
[21] = second compound 1 µM, first compound 0.316 µM
[22] = second compound 1 µM, first compound 1 µM
[23] = second compound 1 µM, first compound 3.16 µM
[24] = second compound 1 µM, first compound 10 µM
[25] = second compound 3.16 µM, first compound 0.0316 µM
[26] = second compound 3.16 µM, first compound 0.1 µM
[27] = second compound 3.16 µM, first compound 0.316 µM
[28] = second compound 3.16 µM, first compound 1 µM
[29] = second compound 3.16 µM, first compound 3.16 µM
[30] = second compound 3.16 µM, first compound 10 µM
[31] = second compound 10 µM, first compound 0.0316 µM
[32] = second compound 10 µM, first compound 0.1 µM
[33] = second compound 10 µM, first compound 0.316 µM
[34] = second compound 10 µM, first compound 1 µM
[35] = second compound 10 µM, first compound 3.16 µM
[36] = second compound 10 µM, first compound 10 µM
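Also: spheroids exposed to compounds for seven days.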
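For viability, T/C in this document: 100% = DMSO vehicle control viability.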

C=CCn1c(=O)c2cnc(Nc3ccc(N4CCN(C)CC4)cc3)nc2n1-c1cccc(C(C)(C)O)n1 + Cc1cnc(CNC(=O)c2c(=O)c3ccc(N4CCCN(C)CC4)nc3n3c2sc2ccccc23)cn1
0.828 µM: IC50 (second compound 3.16 µM)
< 0.0316 µM: IC50 (second compound 0.316 µM) | IC50 (second compound 1 µM) | IC50 (second compound 10 µM)
1.06 µM: IC50 (second compound 0.1 µM)
inactive: viability, T/C [1] 92.1% | viability, T/C [2] 70.7% | viability, T/C [3] 81.6% | viability, T/C [4] 78.6% | viability, T/C [5] 44.3% | viability, T/C [6] 28.4% | viability, T/C [7] 69.1% | viability, T/C [8] 60% | viability, T/C [9] 55.6% | viability, T/C [10] 51.5% | viability, T/C [11] 23.1% | viability, T/C [12] 25% | viability, T/C [13] 50.9% | viability, T/C [14] 42% | viability, T/C [15] 32.1% | viability, T/C [16] 36.4% | viability, T/C [17] 41.3% | viability, T/C [18] 33.8% | viability, T/C [19] 42.8% | viability, T/C [20] 49.4% | viability, T/C [21] 39.2% | viability, T/C [22] 39.4% | viability, T/C [23] 47.5% | viability, T/C [24] 44.1% | viability, T/C [25] 56% | viability, T/C [26] 49.9% | viability, T/C [27] 49.5% | viability, T/C [28] 41.4% | viability, T/C [29] 50.5% | viability, T/C [30] 53.8% | viability, T/C [31] 47.7% | viability, T/C [32] 36% | viability, T/C [33] 45.7% | viability, T/C [34] 40.8% | viability, T/C [35] 40.9% | viability, T/C [36] 39.1%
2.61 µM: IC50 (second compound 0.0316 µM)

CC(C)(O)C1CCC(Nc2ccc3ncc(-c4cccc(C(F)(F)F)c4)n3n2)CC1 (stereo not drawn) + Cc1cnc(CNC(=O)c2c(=O)c3ccc(N4CCCN(C)CC4)nc3n3c2sc2ccccc23)cn1
inactive: viability, T/C [1] 89.5% | viability, T/C [2] 97.4% | viability, T/C [3] 67.9% | viability, T/C [4] 90.6% | viability, T/C [5] 105% | viability, T/C [6] 84.1% | viability, T/C [7] 69% | viability, T/C [8] 71.9% | viability, T/C [9] 51.2% | viability, T/C [10] 59.6% | viability, T/C [11] 65.8% | viability, T/C [12] 67.6% | viability, T/C [13] 48.6% | viability, T/C [14] 58.8% | viability, T/C [15] 48.4% | viability, T/C [16] 47.5% | viability, T/C [17] 65.9% | viability, T/C [18] 58.2% | viability, T/C [19] 47.8% | viability, T/C [20] 51.8% | viability, T/C [21] 40.4% | viability, T/C [22] 53.1% | viability, T/C [23] 57.4% | viability, T/C [24] 54.8% | viability, T/C [25] 40.7% | viability, T/C [26] 43.9% | viability, T/C [27] 38.8% | viability, T/C [28] 47.4% | viability, T/C [29] 41.4% | viability, T/C [30] 37.5% | viability, T/C [31] 36.7% | viability, T/C [32] 47.4% | viability, T/C [33] 31% | viability, T/C [34] 18.5% | viability, T/C [35] 9.55%
< 0.0316 µM: IC50 (second compound 1 µM) | IC50 (second compound 3.16 µM) | IC50 (second compound 10 µM)
> 10 µM: IC50 (second compound 0.0316 µM) | IC50 (second compound 0.1 µM)
active: viability, T/C [36] 4.71%
0.0316 µM: IC50 (second compound 0.316 µM)

Cc1[nH]c2ccccc2c1CCNCc1ccc(/C=C/C(=O)NO)cc1 + Cc1cnc(CNC(=O)c2c(=O)c3ccc(N4CCCN(C)CC4)nc3n3c2sc2ccccc23)cn1
< 0.000999 µM: IC50 (second compound 0.316 µM) | IC50 (second compound 1 µM) | IC50 (second compound 3.16 µM) | IC50 (second compound 10 µM)
0.109 µM: IC50 (second compound 0.1 µM)
inactive: viability, T/C (second compound 0.0316 µM, first compound 0.000999 µM) 81.9% | viability, T/C (second compound 0.0316 µM, first compound 0.00316 µM) 86.5% | viability, T/C (second compound 0.0316 µM, first compound 0.00999 µM) 108% | viability, T/C [1] 72.6% | viability, T/C (second compound 0.0316 µM, first compound 0.0999 µM) 73.5% | viability, T/C [3] 54.3% | viability, T/C (second compound 0.1 µM, first compound 0.000999 µM) 55.7% | viability, T/C (second compound 0.1 µM, first compound 0.00316 µM) 64.3% | viability, T/C (second compound 0.1 µM, first compound 0.00999 µM) 57.6% | viability, T/C [7] 55.8% | viability, T/C (second compound 0.1 µM, first compound 0.0999 µM) 47% | viability, T/C [9] 45.4% | viability, T/C (second compound 0.316 µM, first compound 0.000999 µM) 54.2% | viability, T/C (second compound 0.316 µM, first compound 0.00316 µM) 33.7% | viability, T/C (second compound 0.316 µM, first compound 0.00999 µM) 44.2% | viability, T/C [13] 34.7% | viability, T/C (second compound 0.316 µM, first compound 0.0999 µM) 40.9% | viability, T/C [15] 30.8% | viability, T/C (second compound 1 µM, first compound 0.000999 µM) 42.6% | viability, T/C (second compound 1 µM, first compound 0.00316 µM) 46.7% | viability, T/C (second compound 1 µM, first compound 0.00999 µM) 38.9% | viability, T/C [19] 34.9% | viability, T/C (second compound 1 µM, first compound 0.0999 µM) 33.9% | viability, T/C [21] 31.2% | viability, T/C (second compound 3.16 µM, first compound 0.000999 µM) 40.9% | viability, T/C (second compound 3.16 µM, first compound 0.00316 µM) 48.6% | viability, T/C (second compound 3.16 µM, first compound 0.00999 µM) 41.6% | viability, T/C [25] 41.7% | viability, T/C (second compound 3.16 µM, first compound 0.0999 µM) 29.9% | viability, T/C [27] 24.6% | viability, T/C (second compound 10 µM, first compound 0.000999 µM) 36% | viability, T/C (second compound 10 µM, first compound 0.00316 µM) 40.3% | viability, T/C (second compound 10 µM, first compound 0.00999 µM) 44.8% | viability, T/C [31] 30% | viability, T/C (second compound 10 µM, first compound 0.0999 µM) 38.9% | viability, T/C [33] 6.92%
> 0.316 µM: IC50 (second compound 0.0316 µM)

O=C(NO)c1cnc(N2CCN(S(=O)(=O)c3ccc4ccccc4c3)CC2)nc1 + Cc1cnc(CNC(=O)c2c(=O)c3ccc(N4CCCN(C)CC4)nc3n3c2sc2ccccc23)cn1
0.482 µM: IC50 (second compound 0.0316 µM)
0.0846 µM: IC50 (second compound 0.1 µM)
< 0.0316 µM: IC50 (second compound 0.316 µM) | IC50 (second compound 1 µM) | IC50 (second compound 3.16 µM) | IC50 (second compound 10 µM)
active: viability, T/C [5] 5.35% | viability, T/C [6] 0.97% | viability, T/C [11] 8.63% | viability, T/C [12] 1.81% | viability, T/C [18] 2.24% | viability, T/C [23] 5.24% | viability, T/C [24] 0.22% | viability, T/C [28] 4.62% | viability, T/C [29] 0.18% | viability, T/C [30] 0.17% | viability, T/C [34] 0.2% | viability, T/C [35] 0.21% | viability, T/C [36] 0.22%
inactive: viability, T/C [1] 80.3% | viability, T/C [2] 85% | viability, T/C [3] 59.2% | viability, T/C [4] 30.6% | viability, T/C [7] 63.8% | viability, T/C [8] 47.5% | viability, T/C [9] 32.4% | viability, T/C [10] 20.5% | viability, T/C [13] 46.4% | viability, T/C [14] 32% | viability, T/C [15] 36.2% | viability, T/C [16] 21.2% | viability, T/C [17] 11.2% | viability, T/C [19] 44.3% | viability, T/C [20] 45.7% | viability, T/C [21] 28.4% | viability, T/C [22] 12.4% | viability, T/C [25] 42% | viability, T/C [26] 36.8% | viability, T/C [27] 24.9% | viability, T/C [31] 38.7% | viability, T/C [32] 25% | viability, T/C [33] 14.2%
